Read-outs that look alike come from different tables or passages of the source.
Legend:
[1] = test system: A/Hiroshima/57/2014 (H275Y/I223R)
A/Osaka/8/2014 (H275Y) [2] = test system: A/Osaka/8/2014 (H275Y)
[3] = test system: A/Ibaraki/54/2016 (H275Y/I223K)
[4] = test system: A/Yokohama/94/2016 (H275Y)
[5] = test system: A/Hiroshima/13/2016 (H275Y/G147R)
A/Aichi/83/2016 (H275Y) [6] = test system: A/Aichi/83/2016 (H275Y)
[7] = test system: All viruses tested (dual H275Y, single H275Y, wild-type)
[8] = test system: A/Hiroshima/57/2014 (H275Y/I223R); remark: listed apart in the source
A/Osaka/8/2014 (H275Y) [9] = test system: A/Osaka/8/2014 (H275Y); remark: listed apart in the source
[10] = test system: A/Ibaraki/54/2016 (H275Y/I223K); remark: listed apart in the source
[11] = test system: A/Yokohama/94/2016 (H275Y); remark: listed apart in the source
[12] = test system: A/Hiroshima/13/2016 (H275Y/G147R); remark: listed apart in the source
A/Aichi/83/2016 (H275Y) [13] = test system: A/Aichi/83/2016 (H275Y); remark: listed apart in the source
[14] = test system: All viruses tested (dual H275Y, single H275Y, wild-type); remark: listed apart in the source
[15] = biological target: neuraminidase of A/Hiroshima/13/2016 (H275Y/G147R) (Influenza A virus, UniProt A0A0X9QTS2, G147R/H275Y)
[16] = test system: neuraminidase of the dual H275Y mutant viruses
[17] = biological target: neuraminidase of A/Hiroshima/57/2014 (H275Y/I223R) (Influenza A virus, UniProt W8DXJ8, H275Y/I223R)
[18] = biological target: neuraminidase of A/Osaka/8/2014 (H275Y) (Influenza A virus, UniProt W8DXJ8, H275Y)
[19] = biological target: neuraminidase of A/Ibaraki/54/2016 (H275Y/I223K) (Influenza A virus, UniProt A0A0X9QTS2, H275Y/I223K)
[20] = biological target: neuraminidase of A/Yokohama/94/2016 (H275Y) (Influenza A virus, UniProt A0A0X9QTS2, H275Y)
[21] = biological target: neuraminidase of A/Aichi/83/2016 (H275Y) (Influenza A virus, UniProt A0A0X9QTS2, H275Y)

O=C1c2c(O)c(=O)ccn2N([C@@H]2c3ccccc3SCc3c2ccc(F)c3F)[C@@H]2COCCN12 [Baloxavir, Baloxavir acid]
Fold-change in IC50 compared with the wild-type virus [1]: 8.34 (2.1) fold | IC50 [1]: 8.34 nM | Fold-change in IC50 compared with the wild-type virus (A/Osaka/8/2014 (H275Y) [2]): 5.10 (1.3) fold | IC50 (A/Osaka/8/2014 (H275Y) [2]): 5.1 nM | Fold-change in IC50 compared with the wild-type virus [3]: 7.24 (1.2) fold | IC50 [3]: 7.24 nM | Fold-change in IC50 compared with the wild-type virus [4]: 3.49 (0.6) fold | IC50 [4]: 3.49 nM | Fold-change in IC50 compared with the wild-type virus [5]: 10.59 (1.0) fold | IC50 [5]: 10.6 nM | Fold-change in IC50 compared with the wild-type virus (A/Aichi/83/2016 (H275Y) [6]): 10.18 (0.9) fold | IC50 (A/Aichi/83/2016 (H275Y) [6]): 10.2 nM | Susceptibility of all viruses tested (in words) [7]: susceptible

NC(=O)c1nc(F)c[nH]c1=O [Favipiravir, favipiravir]
EC50 [8]: 7990 nM | Fold-change in EC50 compared with the wild-type virus [8]: 7.99 (1.2) fold | EC50 (A/Osaka/8/2014 (H275Y) [9]): 4760 nM | Fold-change in EC50 compared with the wild-type virus (A/Osaka/8/2014 (H275Y) [9]): 4.76 (0.7) fold | EC50 [10]: 10200 nM | Fold-change in EC50 compared with the wild-type virus [10]: 10.20 (1.0) fold | EC50 [11]: 21400 nM | Fold-change in EC50 compared with the wild-type virus [11]: 21.40 (2.1) fold | EC50 [12]: 15100 nM | Fold-change in EC50 compared with the wild-type virus [12]: 15.13 (1.7) fold | EC50 (A/Aichi/83/2016 (H275Y) [13]): 14800 nM | Fold-change in EC50 compared with the wild-type virus (A/Aichi/83/2016 (H275Y) [13]): 14.83 (1.7) fold | Susceptibility of all viruses tested (in words) [14]: susceptible

[H]/N=C(\N)N[C@H]1C=C(C(=O)O)O[C@@H]([C@H](OC)[C@H](O)CO)[C@@H]1NC(C)=O [Laninamivir]
Susceptibility of the H275Y/G147R mutant virus (in words) [15]: retained susceptibility | Susceptibility of the H275Y/I223R and H275Y/I223K mutant viruses (in words) [16]: reduced susceptibility

CCC(CC)[C@H](NC(C)=O)[C@@H]1[C@H](O)[C@@H](C(=O)O)C[C@H]1N=C(N)N.O.O.O [Peramivir, peramivir trihydrate]
Fold-change in IC50 compared with the wild-type virus [17]: 944.20 (94,000) fold | IC50 [17]: 944 nM | Fold-change in IC50 compared with the wild-type virus [18]: 28.25 (2,800) fold | IC50 [18]: 28.2 nM | Fold-change in IC50 compared with the wild-type virus [19]: 501.62 (7,200) fold | IC50 [19]: 502 nM | Fold-change in IC50 compared with the wild-type virus [20]: 20.88 (300) fold | IC50 [20]: 20.9 nM | Fold-change in IC50 compared with the wild-type virus [15]: 114.14 (1,400) fold | IC50 [15]: 114 nM | Fold-change in IC50 compared with the wild-type virus [21]: 31.93 (400) fold | IC50 [21]: 31.9 nM | Susceptibility of the H275Y/I223R, H275Y/I223K and H275Y/G147R mutant viruses (in words) [16]: enhanced cross-resistance

CC(=O)N[C@H]1[C@H]([C@H](O)[C@H](O)CO)OC(C(=O)O)=C[C@@H]1N=C(N)N [Zanamivir, zanamivir hydrate]
Susceptibility of the H275Y/I223R, H275Y/I223K and H275Y/G147R mutant viruses (in words) [16]: reduced susceptibility

From paper PMC7559125 (Pathogens, 2020)
